Laboratory results published in patent US8580962B2, “Spiroheterocyclic compounds as mGlu5 antagonists” (Recordati Ireland Ltd., priority 2010, dated 2013).

Experiments:
conscious rats = experiment: Effect on cystometry in conscious rats (bladder volume capacity); type: in vivo, rat; conditions: for MED (Minimal Effective Dose that induces statistically significant increase of bladder volume capacity): oral administration; for increase of bladder volume capacity: orally
Description: Male Sprague-Dawley rats [Crl: CD® (SD) IGS BR] of 300-400 g b.w. supplied by Charles River Italia were used. The animals were housed with free access to food and water and maintained on a forced 12-hour-light/12-hour-dark cycle at 22-24° C. of temperature, except during the experiment. To quantify urodynamic parameters in conscious rats, cystometrographic studies were performed according to the procedure previously reported (Guarneri et al., Pharmacol. Res. 24: 175, 1991).
Briefly, the rats were anaesthetised by intraperitoneal administration of 3 ml/kg of Equithensin solution (pentobarbital 30 mg/kg and chloral hydrate 125 mg/kg) and placed in a supine position. An approximately 10 mm long midline incision was made in the shaved and cleaned abdominal wall. The urinary bladder was gently freed from adhering tissues, emptied and then cannulated via an incision in the bladder body, using a polyethylene cannula (0.58 mm internal diameter, 0.96 mm external diameter) which was permanently sutured with silk thread. The cannula was exteriorised through a subcutaneous tunnel in the retroscapular area, where it was connected to a plastic adapter in order to avoid the risk of removal by the animal. For drug testing, the rats were utilised one day after implantation.
On the day of the experiment, the rats were placed in modified Bollman cages, i.e., restraining cages that were large enough to permit the rats to adopt a normal crouched posture, but narrow enough to prevent turning around. […] The intraluminal-pressure signal during infusion of saline into the bladder (cystometrogram) was continuously recorded on a polygraph (Rectigraph-8K San-ei with BM614/2 amplifier from Biomedica Mangoni) or stored on PC by data acquisition system (PowerLab, Chart 4 software, AD Instruments). From the cystometrogram, bladder volume capacity (BVC) was evaluated. […] Basal BVC value was evaluated as the mean of the values observed in the cystometrograms recorded in an initial period of 30-60 minutes. […] The bladder infusion restarted and changes in BVC were evaluated from the mean values obtained in the cystometrograms observed during 1, 2, and 3 hours after treatment. […]
Each experimental group was composed of 4-11 animals. All data were expressed as mean±standard error. The percent change of BVC versus the basal value, as well as Δ value (difference in ml) of BVC (BVC at time “x” minus basal value), were also evaluated for each rat/time. […]
Statistical analysis on BVC values, as well as on Δ values, was performed by S.A.S./STAT software, version 6.12. The difference between vehicle and active treatment effect was evaluated on Δ values of BVC, whereas the difference between the values at different times versus the basal values was evaluated on original BVC data.

mGlu5 receptor = biological target: T1, mGlu5 receptor (Rattus norvegicus, UniProt P31424); experiment: Radioligand binding assay at metabotropic glutamate receptor 5 in rat brain; conditions: [3H]MPEP, rat forebrain membranes; read-out: affinity (Ki) for mGlu5 receptor
T1 construct: from tissue; host or cells: rat forebrain (cortex, striatum and hippocampus) membranes, male Sprague Dawley rats
T1 sequence (P31424 21-1203): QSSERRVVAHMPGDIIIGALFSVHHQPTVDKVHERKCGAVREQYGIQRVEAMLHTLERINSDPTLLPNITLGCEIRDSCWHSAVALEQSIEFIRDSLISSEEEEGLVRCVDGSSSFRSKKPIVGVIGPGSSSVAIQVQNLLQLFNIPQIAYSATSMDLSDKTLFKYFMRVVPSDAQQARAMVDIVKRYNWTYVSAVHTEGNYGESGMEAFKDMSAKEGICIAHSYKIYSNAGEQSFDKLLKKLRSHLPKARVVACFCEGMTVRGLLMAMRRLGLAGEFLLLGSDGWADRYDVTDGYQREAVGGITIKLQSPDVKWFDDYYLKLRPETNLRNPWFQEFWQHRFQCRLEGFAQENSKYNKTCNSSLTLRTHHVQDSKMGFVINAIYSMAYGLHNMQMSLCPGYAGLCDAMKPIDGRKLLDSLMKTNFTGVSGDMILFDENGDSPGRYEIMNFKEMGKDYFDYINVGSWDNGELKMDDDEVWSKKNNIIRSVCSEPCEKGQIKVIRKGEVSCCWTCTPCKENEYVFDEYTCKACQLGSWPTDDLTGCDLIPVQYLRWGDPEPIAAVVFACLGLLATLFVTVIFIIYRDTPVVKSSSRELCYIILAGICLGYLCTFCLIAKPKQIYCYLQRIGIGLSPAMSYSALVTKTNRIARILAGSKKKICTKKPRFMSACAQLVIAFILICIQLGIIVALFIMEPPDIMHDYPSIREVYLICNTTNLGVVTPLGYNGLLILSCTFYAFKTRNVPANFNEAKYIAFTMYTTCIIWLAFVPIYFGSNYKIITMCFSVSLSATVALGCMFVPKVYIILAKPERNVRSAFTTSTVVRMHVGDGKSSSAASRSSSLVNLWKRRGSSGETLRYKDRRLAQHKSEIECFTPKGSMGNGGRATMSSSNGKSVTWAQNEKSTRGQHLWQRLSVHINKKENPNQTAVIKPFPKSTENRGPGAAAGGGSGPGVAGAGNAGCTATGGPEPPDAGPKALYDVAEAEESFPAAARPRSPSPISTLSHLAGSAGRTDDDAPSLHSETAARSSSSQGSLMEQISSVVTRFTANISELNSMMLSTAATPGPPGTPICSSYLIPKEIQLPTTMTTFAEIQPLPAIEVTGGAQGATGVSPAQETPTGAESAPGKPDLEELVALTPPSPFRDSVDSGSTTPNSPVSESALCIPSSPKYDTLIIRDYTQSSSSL
Description: Radioligand Binding Assay at Metabotropic Glutamate Receptor 5 in Rat Brain.
a) Membrane preparation: male Sprague Dawley rats (200-300 g, Charles River, Italy) were killed by cervical dislocation and the forebrain (cortex, striatum and hippocampus) was homogenized (2×20 sec) in 50 vols of cold 50 mM Tris buffer pH 7.4, using a Politron homogenizer (Kinematica). Homogenates were centrifuged at 48000×g for 15 min, resuspended in 50 vols of the same buffer, incubated at 37° C. for 15 min and centrifuged and resuspended two more times. The final pellets were frozen and stored at −80° C. until use.
b) Binding assay: pellets from rat forebrain were resuspended in 100 vols of 20 mM HEPES, 2 mM MgCl2, 2 mM CaCl2, pH 7.4. The membranes were incubated in a final volume of 1 ml for 60 min at 25° C. with 4 nM [^3H]MPEP in the absence or presence of competing drugs. Non-specific binding was determined in the presence of 10 μM MPEP (Spooren W. et al., Trends Pharmacol Sci. 22, 331-337, 2001). The incubation was stopped by the addition of cold Tris buffer pH 7.4 and rapid filtration through 0.5% polyethyleneimine pretreated Filtermat 1204-401 (Wallac) filters. The filters were then washed with cold buffer and the radioactivity retained on the filters was counted by liquid scintillation spectrometry. […]

| Compound | MED (Minimal Effective Dose that induces statistically significant increase of bladder volume capacity) (conscious rats) [mg/kg] | Ki (mGlu5 receptor) [nM] | increase of bladder volume capacity (conscious rats; 1 mg/kg) | increase of bladder volume capacity (conscious rats; 3 mg/kg, statistically significant from the vehicle group after 3 hours from treatment) |
| --- | --- | --- | --- | --- |
| Clc1cccc(C#CC2=NOC3(CCC4(CCCO4)CC3)C2)c1 (single isomer, unassigned) [Example 78, 3-[(3-Chlorophenyl)ethynyl]-1,9-dioxa-2-azadispiro[4.2.4.2]tetradec-2-ene] | 3 |  |  |  |
| Cc1ccc([N+](=O)[O-])c(N2CCC3(CC2)CC(C#Cc2cccc(Cl)c2)=NO3)n1 [Example 12, 3-[(3-Chlorophenyl)ethynyl]-8-(6-methyl-3-nitropyridin-2-yl)-1-oxa-2,8-diazaspiro[4.5]dec-2-ene] |  | 3.88 |  |  |
| CON(C)C(=O)N1CCC2(CC(C#Cc3cccc(Cl)c3)=NO2)C1 (stereo not drawn) [Example 110, 7-[2-(3-Chlorophenyl)ethynyl]-N-methoxy-N-methyl-9-oxa-3,8-diazaspiro[4.4]non-7-ene-3-carboxamide] |  | 1.49 |  |  |
| Cc1nc(C#Cc2cccnc2)cs1 [MTEP] | 3 |  | only a slight increase | sustained increase |
